Source: ChEMBL document CHEMBL5726853, “3-acetylenyl-pyrazole-pyrimidine derivative, and preparation method therefor and uses thereof” (2019)

Target: Proto-oncogene tyrosine-protein kinase Src (Homo sapiens, UniProt P12931)
Sequence (P12931 2-536 limits assumed): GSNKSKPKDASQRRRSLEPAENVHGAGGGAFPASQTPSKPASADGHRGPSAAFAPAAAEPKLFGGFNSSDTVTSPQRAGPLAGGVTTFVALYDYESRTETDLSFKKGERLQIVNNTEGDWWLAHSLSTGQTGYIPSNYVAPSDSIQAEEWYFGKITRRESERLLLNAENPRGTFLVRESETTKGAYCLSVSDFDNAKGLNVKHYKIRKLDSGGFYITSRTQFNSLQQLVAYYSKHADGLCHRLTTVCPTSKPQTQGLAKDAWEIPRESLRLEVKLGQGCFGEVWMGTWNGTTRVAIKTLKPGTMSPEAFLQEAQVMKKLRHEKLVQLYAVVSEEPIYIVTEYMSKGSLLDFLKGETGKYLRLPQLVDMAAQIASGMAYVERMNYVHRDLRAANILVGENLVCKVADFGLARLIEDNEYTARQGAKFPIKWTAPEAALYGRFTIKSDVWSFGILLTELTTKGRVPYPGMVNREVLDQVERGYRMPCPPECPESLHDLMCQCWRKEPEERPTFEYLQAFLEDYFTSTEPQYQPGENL

IC50: 4 nM
Compound: Cc1ccc(NC(=O)c2ccc(CN3CCN(C)CC3)cc2)cc1C#Cc1nn(C(C)C)c2ncnc(N)c12
